Data taken from article PMC7970304, “The Effects of Apelin and Elabela Ligands on Apelin Receptor Distinct Signaling Profiles” (Frontiers in Pharmacology, 2021).
Entries after “also recorded” stand apart in the source; their conditions may differ.

How the values were obtained:
[1] = molecular target: APJ; parameters: method as in Couvineau et al., 2020; conditions: displacement of 125I-pE13F; ref Couvineau et al., 2020; cited from earlier work
[2] = molecular target: T1, APJ (Apelin receptor) (Homo sapiens, UniProt P35414); experiment: Analysis of ligand bias across APJ pathways; assay type: cell-based; parameters: APJ membrane preparations were obtained from transiently transfected HEK293 cells; host or cells: HEK293 cells, transiently transfected; membranes prepared; conditions: reference ligand Apelin-13, reference pathway calcium release
T1 sequence (P35414 1-380): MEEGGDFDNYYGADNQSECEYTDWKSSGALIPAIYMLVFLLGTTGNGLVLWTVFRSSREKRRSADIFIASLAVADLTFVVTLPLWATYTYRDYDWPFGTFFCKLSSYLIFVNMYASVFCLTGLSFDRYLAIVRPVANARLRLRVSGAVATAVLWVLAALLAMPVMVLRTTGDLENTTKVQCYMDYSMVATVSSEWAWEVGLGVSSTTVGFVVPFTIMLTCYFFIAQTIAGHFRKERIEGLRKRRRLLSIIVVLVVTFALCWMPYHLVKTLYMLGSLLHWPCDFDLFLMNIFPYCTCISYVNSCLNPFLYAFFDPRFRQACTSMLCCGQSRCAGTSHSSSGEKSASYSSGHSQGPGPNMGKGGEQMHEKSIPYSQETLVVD
Experimental: The concentration-response data for the ligands in various assays were analyzed to determine the biases of the ligands for G protein dependent signaling or β-arrestin dependent signaling, according to a previously published method ([Kenakin et al., 2012]; [Hager et al., 2016]; [Hothersall et al., 2017]). Briefly, the concentration-response data for each ligand were fitted to the Black-Leff operation model to obtain the values of τ and K A, using the following equation: Response=[[…] where [A] is the concentration of the agonist, E m is the maximal response of the system, n is the transducer slope, and K A and τ describe the affinity and efficacy of the agonist, respectively. In the data fitting, the reparametrized form of the equation proposed by [Kenakin et al. (2012)] was used: Response=[…]β2} where β 1 and β 2 are the natural logarithm of K A and τ, respectively, and E m was set to 1. […] The ΔΔlog (τ/K A), or Log (Bias), which is the logarithm of the bias factor for a given pathway over a reference pathway (here, intracellular calcium release), was calculated for each ligand as Δlog (τ/K A)-Δlog (τ/K A)Calcium. The 95% confidence interval (CI) was expressed as the mean ± standard error; Log (Bias) values, whose 95% CI crosses 0, were considered statistically insignificant.

CSCC[C@H](NC(=O)[C@@H]1CSSC[C@H](NC(=O)[C@H](CC(N)=O)NC(=O)[C@H](Cc2c[nH]cn2)NC(=O)[C@H](CCCCN)NC(=O)[C@H](CCCNC(=N)N)NC(=O)[C@@H](N)CC(C)C)C(=O)N[C@@H](CC(C)C)C(=O)N[C@@H](CCC(N)=O)C(=O)N[C@@H](CCCNC(=N)N)C(=O)N[C@@H](CCCNC(=N)N)C(=O)N1)C(=O)N1CCC[C@H]1C(=O)N[C@@H](CC(C)C)C(=O)N[C@@H](Cc1c[nH]cn1)C(=O)N[C@@H](CO)C(=O)N[C@@H](CCCNC(=N)N)C(=O)N[C@H](C(=O)N1CCC[C@H]1C(=O)N[C@@H](Cc1ccccc1)C(=O)N1CCC[C@H]1C(=O)O)C(C)C [Elabela-21]
pKi [1]: 9.49 | signaling bias profile (in words) [2]: much stronger activity on the cAMP pathway; also recorded: weaker activity; also recorded: very weak effects on β-arrestin dependent pathways
